Values quoted from earlier work as cited in patent US20260137743A1, “METHODS OF RELIEVING PAIN” (Infinitum Health, LLC, priority 2023, published 2026).

Settings: isolated from Incarvillea sinensis

COc1cc([C@H]2[C@H](C(=O)O[C@@H]3C[C@@H]4[C@@H](CN(C)C[C@@H]4C)[C@@H]3C)[C@H](c3ccc(O)c(OC)c3)[C@H]2C(=O)O[C@@H]2C[C@@H]3[C@@H](CN(C)C[C@@H]3C)[C@@H]2C)ccc1O [Incarvillateine, incarvillateine]
analgesic (pain relief) activity: significant analgesic (pain relief) activity
